Data from ChEMBL document CHEMBL1158071, “Pterulamides I-VI, linear peptides from a Malaysian Pterula sp” (J Nat Prod, 2006).
Non-standard residues stand in square brackets, D forms with d. Residues, ends and D or L forms follow the SMILES beside them. *: point of attachment. NMeI = CC[C@H](C)[C@H](NC)C(=O)O; NMeV = CN[C@H](C(=O)O)C(C)C; X2 = C[S+]([O-])/C=C/C(=O)*; NMeA = CN[C@@H](C)C(=O)O; X1 = O=C(/C=C/c1ccccc1)*

System: P388
Test: Cytotoxicity against mouse P388 cells
Type: functional, cell-based

Structure (SMILES)	IC50 [nM]
CC[C@H](C)[C@@H](C(=O)NC)N(C)C(=O)[C@@H](NC(=O)[C@H](C(C)C)N(C)C(=O)[C@H]([C@@H](C)CC)N(C)C(=O)[C@H](C)N(C)C(=O)/C=C/c1ccccc1)C(C)C [PTERULAMIDE IV] (X1-[NMeA][NMeI][NMeV]V[NMeI]-NHMe)	1330
CC[C@H](C)[C@@H](C(=O)NC)N(C)C(=O)[C@@H](NC(=O)[C@H](C(C)C)N(C)C(=O)[C@H]([C@@H](C)CC)N(C)C(=O)[C@H](C)N(C)C(=O)/C=C/[S+](C)[O-])C(C)C (some centres not stated) [PTERULAMIDE I] (X2-[NMeA][NMeI][NMeV]V[NMeI]-NHMe)	790
